Target: T1, human subtype 5 somatostatin receptor (Homo sapiens, UniProt P35346)
T1 construct: host or cells: CHO cells, stably transfected; membranes prepared from them
Assay: SSTR5 radioligand binding assay (125I-labeled 11-Tyr somatostatin-14 tracer, membranes of transfected CHO cells)
Conditions: CHO cell membranes, Ki calculated from IC50 by Cheng-Prussoff equation
Protocol: A CHO cell line stably transfected with a plasmid encoding the human subtype 5 somatostatin receptor (GenBank accession number D16827) was obtained from Euroscreen. Cells were cultured and used for binding and functional assays.
Membranes of these cells were prepared by sonication in the presence of protease inhibitors and subsequent fractionating centrifugation. The protein concentration in the membrane preparation was determined using a commercial kit (BCA kit, Pierce, USA). Membranes were stored at −80° C. until use. After thawing, membranes were diluted in assay buffer (50 mM Tris-HCl at pH 7.4, 5 mM MgCl2 and 0.20% BSA) and subjected to dounce homogenization.
For binding studies, 0.1 mL membrane suspension, corresponding to app. 6×10^−15 mol receptor, was incubated for 1 h at room temperature with 0.05 nM ^125I-labeled tracer (11-Tyr somatostatin-14, Perkin-Elmer) and either test compounds in varying concentrations or, for the determination of non-specific binding, 0.001 mM non-labeled somatostatin-14. The incubation was stopped by filtration through GF/B glassfiber filters and washing with ice-cold wash buffer (50 mM Tris-HCl at pH 7.4). The bound radioactivity was measured after application of a scintillation cocktail (Microscint 40) and expressed as disintegrations per minute (dpm).
The receptor concentration was determined in a prior saturation experiment where a fixed, arbitrary amount of membranes was incubated with a concentration range of radio-labeled tracer. This allows estimating the total number of specific binding sites per amount of protein (i.e., Bmax), typically between 1 and 5 pmol/mg.
The concentration of the test compound required to result in half maximal inhibition of binding of the radio-labeled tracer (IC50) was estimated from a concentration-versus-dpm graph. The binding affinity (Ki) was calculated from the IC50 by applying the Cheng-Prussoff equation for single binding sites.

T1 sequence (P35346 whole entry): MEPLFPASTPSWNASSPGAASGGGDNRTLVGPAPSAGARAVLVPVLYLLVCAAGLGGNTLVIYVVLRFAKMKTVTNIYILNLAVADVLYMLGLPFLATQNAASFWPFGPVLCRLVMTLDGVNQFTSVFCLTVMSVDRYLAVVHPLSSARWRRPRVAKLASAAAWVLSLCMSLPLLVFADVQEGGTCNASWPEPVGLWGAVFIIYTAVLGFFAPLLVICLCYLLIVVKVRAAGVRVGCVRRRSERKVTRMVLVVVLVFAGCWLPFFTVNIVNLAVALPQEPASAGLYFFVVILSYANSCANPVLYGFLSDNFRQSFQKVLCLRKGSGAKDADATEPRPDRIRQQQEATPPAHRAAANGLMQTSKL

| Ki [nM] | Structure (SMILES) |
| --- | --- |
| 31 | CCOc1cc(CN2CCC(Nc3ncc(-c4ccc(OC)cc4)cn3)CC2)ccc1Cl [Example 161, [1-(4-chloro-3-ethoxy-benzyl)-piperidin-4-yl]-[5-(4-methoxy-phenyl)-pyrimidin-2-yl]-amine] |
| 6.4 | CCOc1cc(CN2CCC(Nc3ncc(C#N)c(N)n3)CC2)cc(OCOC)c1I [Example 137, 4-amino-2-[1-(3-ethoxy-4-iodo-5-methoxymethoxy-benzyl)-piperidin-4-ylamino]-pyrimidine-5-carbonitrile] |
| 490 | CCOc1cc(CN2CCC(Nc3nc(N)c4cc(C)ccc4n3)CC2)ccc1OC [Example 8, N^2-[1-(3-Ethoxy-4-methoxy-benzyl)-piperidin-4-yl]-6-methyl-quinazoline-2,4-diamine] |
